Measured values reported in ChEMBL document CHEMBL3217502, “Synthesis of dual AChE/5-HT4 receptor multi-target directed ligands” (Medchemcomm, 2012).

Legend:
[1] = target: 5-hydroxytryptamine receptor 4 (Homo sapiens) (UniProt Q13639); assay: Displacement of [3H]-GR113808 from human 5HT4E receptor at 10^-8 M after 30 mins by liquid scintillation counting
Acetylcholinesterase = Acetylcholinesterase (Electrophorus electricus, UniProt O42275); assay: Inhibition of electric eel AChE using acetylthiocholine iodide as substrate preincubated for 5 mins before substrate addition measured for 10 mins by Ellman's method
Acetylcholinesterase, sequence (O42275 whole entry): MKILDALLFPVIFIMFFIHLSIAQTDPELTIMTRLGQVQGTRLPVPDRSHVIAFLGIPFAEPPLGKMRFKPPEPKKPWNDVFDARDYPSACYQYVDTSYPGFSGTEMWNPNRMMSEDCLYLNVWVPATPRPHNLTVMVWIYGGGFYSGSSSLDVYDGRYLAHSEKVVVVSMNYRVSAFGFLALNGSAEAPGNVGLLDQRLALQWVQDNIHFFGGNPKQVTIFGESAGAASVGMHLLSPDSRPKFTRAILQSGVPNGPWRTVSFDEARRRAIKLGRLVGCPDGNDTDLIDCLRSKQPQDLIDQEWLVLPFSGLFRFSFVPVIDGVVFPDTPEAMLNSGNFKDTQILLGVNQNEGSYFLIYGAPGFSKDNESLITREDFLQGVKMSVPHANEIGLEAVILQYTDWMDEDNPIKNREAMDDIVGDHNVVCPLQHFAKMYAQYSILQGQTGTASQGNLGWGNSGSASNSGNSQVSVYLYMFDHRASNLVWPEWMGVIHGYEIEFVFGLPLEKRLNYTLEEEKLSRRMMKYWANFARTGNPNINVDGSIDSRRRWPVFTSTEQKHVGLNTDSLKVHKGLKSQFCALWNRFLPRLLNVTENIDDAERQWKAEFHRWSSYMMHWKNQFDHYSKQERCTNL

[2] = target: 5-hydroxytryptamine receptor 4 (Cavia porcellus, UniProt O70528); assay: Displacement of [3H]-GR113808 from guinea pig 5HT4 receptor by Grossman's method
5-hydroxytryptamine receptor 4, sequence (O70528 whole entry): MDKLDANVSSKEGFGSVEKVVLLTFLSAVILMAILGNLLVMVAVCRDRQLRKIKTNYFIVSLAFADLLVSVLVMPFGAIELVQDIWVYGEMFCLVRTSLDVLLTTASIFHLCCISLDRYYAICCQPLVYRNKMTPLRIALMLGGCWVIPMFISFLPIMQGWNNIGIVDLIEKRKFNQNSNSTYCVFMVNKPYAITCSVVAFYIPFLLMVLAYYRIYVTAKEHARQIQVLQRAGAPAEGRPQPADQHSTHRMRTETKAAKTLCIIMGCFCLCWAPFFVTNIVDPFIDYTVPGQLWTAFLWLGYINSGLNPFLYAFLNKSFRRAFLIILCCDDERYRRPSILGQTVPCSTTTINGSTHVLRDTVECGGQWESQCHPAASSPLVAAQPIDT

[3] = target: 5-hydroxytryptamine receptor 4 (Homo sapiens) (UniProt Q13639); assay: Displacement of [3H]-GR113808 from human 5HT4E receptor at 10^-6 M after 30 mins by liquid scintillation counting

5-hydroxytryptamine receptor 4 (Homo sapiens), sequence (Q13639 whole entry): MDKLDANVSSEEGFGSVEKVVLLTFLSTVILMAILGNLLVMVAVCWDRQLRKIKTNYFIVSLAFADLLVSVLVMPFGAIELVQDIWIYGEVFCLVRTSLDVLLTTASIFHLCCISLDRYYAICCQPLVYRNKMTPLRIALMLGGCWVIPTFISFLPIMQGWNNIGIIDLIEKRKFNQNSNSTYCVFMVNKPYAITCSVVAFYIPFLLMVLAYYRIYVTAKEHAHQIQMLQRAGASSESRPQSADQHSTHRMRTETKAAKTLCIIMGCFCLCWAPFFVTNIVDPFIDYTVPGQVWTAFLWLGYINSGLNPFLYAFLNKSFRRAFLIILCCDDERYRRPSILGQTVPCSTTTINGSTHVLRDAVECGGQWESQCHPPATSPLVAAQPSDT

Compound	inhibition [1] [%]	IC50 (Acetylcholinesterase) [nM]	Ki [2] [nM]	inhibition [3] [%]
Cc1csc2nc(OCC3CCN(CC4CCCC4)CC3)c3cccn3c12	78	553	21.3	100
Cc1csc2nc(OCC3CCN(Cc4ccccc4)CC3)c3cccn3c12	38	165	22	98
Fc1ccc(CN2CCC(COc3nc4ccsc4n4cccc34)CC2)cc1			99	
c1cc2c(OCC3CCN(Cc4ccncc4)CC3)nc3ccsc3n2c1			174	
CCCN1CCC(COc2nc3scc(C)c3n3cccc23)CC1		5000	6	
c1cc2c(OCC3CCN(CC4CCCCC4)CC3)nc3ccsc3n2c1	22	206	79.9	99
COc1ccc(CN2CCC(COc3nc4ccsc4n4cccc34)CC2)cc1			216	
c1cc2c(OCC3CCN(CC4CC4)CC3)nc3ccsc3n2c1			53	
c1ccc(CCN2CCC(COc3nc4ccsc4n4cccc34)CC2)cc1			49.8	
c1ccc(CCCN2CCC(COc3nc4ccsc4n4cccc34)CC2)cc1			75.8	
c1ccc(CN2CCC(COc3nc4ccsc4n4cccc34)CC2)cc1	30	551	52.9	96
Cc1csc2nc(OCC3CCN(CC4CCCCC4)CC3)c3cccn3c12	60	95.8	4.2	99
c1cc2c(OCC3CCN(CC4CCCC4)CC3)nc3ccsc3n2c1	39	597	44.8	100
c1cc2c(OCC3CCN(CC4CCC4)CC3)nc3ccsc3n2c1			25.9	
c1ccc(CN2CCC(CCOc3nc4ccsc4n4cccc34)CC2)cc1		561		
